ChEMBL document CHEMBL5338758, “Design, Synthesis, and Bioevaluation of Novel MyD88 Inhibitor c17 against Acute Lung Injury Derived from the Virtual Screen” (J Med Chem, 2023)
The source made the active and inactive calls. No cut-off for these calls is given here.

Assays:
J774.A1 [1] = assay: Anti-inflammatory activity in mouse J774.A1 cells assessed as inhibition of LPS-induced IL-6 production at 10 uM pre-stimulated with LPS for 24 hrs followed by compound addition and measured after 0.5 hrs by ELISA analysis relative to control; format: functional
J774.A1 [2] = assay: Anti-inflammatory activity in mouse J774.A1 cells assessed as inhibition of LPS-induced TNF-alpha production at 10 uM pre-stimulated with LPS for 24 hrs followed by compound addition and measured after 0.5 hrs by ELISA analysis relative to control; format: functional
J774.A1 [3] = assay: Anti-inflammatory activity in mouse J774.A1 cells assessed as inhibition of LPS-induced IL-6 production pre-stimulated with LPS for 24 hrs followed by compound addition and measured after 0.5 hrs by ELISA analysis; format: functional, cell-based
J774.A1 [4] = assay: Anti-inflammatory activity in mouse J774.A1 cells assessed as inhibition of LPS-induced TNF-alpha production pre-stimulated with LPS for 24 hrs followed by compound addition and measured after 0.5 hrs by ELISA analysis; format: functional, cell-based
J774.A1 [5] = assay: Cytotoxicity against mouse J774.A1 cells assessed as reduction in cell survival incubated for 24 hrs by MTT assay; format: toxicity, cell-based; conditions: j774.a1, 24 h
[6] = biological target: T1, Myeloid differentiation primary response protein MyD88 (Homo sapiens, UniProt Q99836); assay: Binding affinity to human MyD88 TIR domain by SPR analysis; conditions: dose 1.19-5.94 10^-5M
T1 sequence (Q99836 whole entry, the tested form may be a part): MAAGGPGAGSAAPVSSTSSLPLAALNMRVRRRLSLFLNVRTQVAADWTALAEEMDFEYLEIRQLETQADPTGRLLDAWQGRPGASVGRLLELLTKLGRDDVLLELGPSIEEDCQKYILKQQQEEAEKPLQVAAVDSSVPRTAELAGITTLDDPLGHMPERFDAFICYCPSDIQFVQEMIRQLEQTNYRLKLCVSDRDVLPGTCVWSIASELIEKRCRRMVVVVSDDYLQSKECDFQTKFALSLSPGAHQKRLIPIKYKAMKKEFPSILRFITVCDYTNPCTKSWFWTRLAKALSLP

[7] = biological target: T1, Myeloid differentiation primary response protein MyD88; assay: Binding affinity to human MyD88 TIR domain assessed as equilibrium dissociation constant by SPR analysis
J774.A1 [8] = assay: Anti-inflammatory activity in mouse J774.A1 cells assessed as suppression of LPS-induced IL-6 production by ELISA analysis; format: functional, cell-based

Structure (SMILES)	inhibition at 10 µM (J774.A1 [1])	inhibition at 10 µM (J774.A1 [2])	other results
O=[N+]([O-])c1cc(S(=O)(=O)Nc2ccccc2)ccc1N1CCN(CCO)CC1	55.6%	7.89%	
COCCN1CCN(Cc2ccc(-c3cc(-c4ccccc4)[nH]c(=O)n3)cc2)CC1		25.6%	inhibition (J774.A1 [1]): inactive
COCCN1CCN(c2ccc(S(=O)(=O)Nc3ccc(OC)nc3)cc2[N+](=O)[O-])CC1	47.3%	1.16%	
COCCN1CCN(Cc2ccc(-c3cc(-c4ccc(OC)cc4)[nH]c(=O)n3)cc2)CC1	14.8%	40.8%	
O=[N+]([O-])c1cccc(CN2CCN(c3ccc(S(=O)(=O)Nc4ccccc4)cc3[N+](=O)[O-])CC2)c1	71.2%	33.9%	
COc1ccc(NS(=O)(=O)c2ccc(N3CCN(c4cnc(NC(C)=O)s4)CC3)c([N+](=O)[O-])c2)cn1	39.9%	12.2%	
CCCCCNCc1ccc(-c2cc(-c3ccc(OC)cc3)[nH]c(=O)n2)cc1	35.3%	24.1%	
O=c1nc(-c2ccc(CN3CCN(CCO)CC3)cc2)cc(-c2ccc(Br)cc2)[nH]1	7.52%	29.6%	
COCCN1CCN(c2ccc(S(=O)(=O)Nc3ccccc3)cc2[N+](=O)[O-])CC1	60.3%	16.9%	
COCCN1CCN(Cc2ccc3c(=O)[nH]c(-c4ccccc4)nc3c2)CC1	29.2%		inhibition (J774.A1 [2]): inactive
COc1ccc(-c2cc(-c3ccc(CN4CCN(CCOCCO)CC4)cc3)nc(=O)[nH]2)cc1	17.1%	27.2%	
O=[N+]([O-])c1cc(S(=O)(=O)NCc2ccccn2)ccc1N1CCN(CCO)CC1	37.8%	6.63%	
O=C(Nc1ccccc1)c1ccc(N2CCN(CCO)CC2)c([N+](=O)[O-])c1	47.5%	1.01%	
COc1ccc(CN2CCN(c3ccc(S(=O)(=O)Nc4ccc(OC)nc4)cc3[N+](=O)[O-])CC2)cc1	63.5%	27.9%	
CC(=O)N1CCN(Cc2ccc3c(=O)[nH]c(-c4ccccc4)nc3c2)CC1	26%		inhibition (J774.A1 [2]): inactive
O=c1nc(-c2ccc(CNc3nc4ccccc4s3)cc2)cc(-c2ccccc2)[nH]1	79.5%	53.3%	IC50 (J774.A1 [3]): 530 nM; IC50 (J774.A1 [4]): 17.7 µM; Activity (J774.A1 [5]): Non-Toxic; Activity [6]: inactive
COc1ccc(NS(=O)(=O)c2ccc(N3CCN(Cc4ccccc4)CC3)c([N+](=O)[O-])c2)cn1	55.1%	27.7%	
COCCN1CCN(c2ccc(S(=O)(=O)NCc3ccccn3)cc2[N+](=O)[O-])CC1	50.4%	11.8%	
COc1ccc(-c2cc(-c3ccc(CN4CCN(CCO)CC4)cc3)nc(=O)[nH]2)cc1	8.43%	33.7%	
O=c1cc(-c2ccncc2)nc(-c2ccc(CN3CCN(CCO)CC3)cc2)[nH]1	33.5%	8.59%	Kd [7]: 795 µM; Activity (J774.A1 [8]): Active
CCCCCNCc1ccc(-c2cc(-c3ccccc3)[nH]c(=O)n2)cc1	17.9%	16.1%	
O=c1[nH]c(-c2ccc(CN3CCN(c4ccc([N+](=O)[O-])cc4)CC3)cc2)nc2ccccc12	44.1%		inhibition (J774.A1 [2]): inactive
COc1ccc(NS(=O)(=O)c2ccc(N3CCN(Cc4ccc([N+](=O)[O-])cc4)CC3)c([N+](=O)[O-])c2)cn1	71.8%	37.9%	IC50 (J774.A1 [3]): 3400 nM; IC50 (J774.A1 [4]): 14.1 µM

Structure (SMILES)	inhibition at 10 µM (J774.A1 [1])	inhibition at 10 µM (J774.A1 [2])	other results
COCCN1CCN(Cc2ccc(-c3cc(-c4ccc(Br)cc4)[nH]c(=O)n3)cc2)CC1	46.1%	41.1%	
O=c1nc(-c2ccc(CN3CCN(c4ccc([N+](=O)[O-])cc4)CC3)cc2)cc(-c2ccccc2)[nH]1	15.7%	50.6%	
O=c1[nH]c(-c2ccccc2)nc2cc(CN3CCN(CCOCCO)CC3)ccc12	24.1%		inhibition (J774.A1 [2]): inactive
COc1ccc(NS(=O)(=O)c2ccc(N3CCN(CCO)CC3)c([N+](=O)[O-])c2)cn1	22.2%		inhibition (J774.A1 [2]): inactive
O=C(Nc1ccccc1)c1ccc(N2CCN(Cc3cccc([N+](=O)[O-])c3)CC2)c([N+](=O)[O-])c1			inhibition (J774.A1 [1]): inactive; inhibition (J774.A1 [2]): inactive
CC(=O)N1CCN(Cc2ccc(-c3cc(-c4ccc(Br)cc4)[nH]c(=O)n3)cc2)CC1			inhibition (J774.A1 [1]): inactive; inhibition (J774.A1 [2]): inactive
O=C(NCc1ccccn1)c1ccc(N2CCN(Cc3ccc([N+](=O)[O-])cc3)CC2)c([N+](=O)[O-])c1	57.6%	37%	
O=c1nc(-c2ccc(CN3CCN(CCOCCO)CC3)cc2)cc(-c2ccccc2)[nH]1	19.3%	14.2%	
CC(=O)N1CCN(Cc2ccc(-c3nc4ccccc4c(=O)[nH]3)cc2)CC1	53.7%	11.9%	
O=c1nc(-c2ccc(CN3CCN(CCOCCO)CC3)cc2)cc(-c2ccc(Br)cc2)[nH]1	58.4%	22.6%	
O=c1[nH]c(-c2ccccc2)nc2cc(CN3CCN(CCO)CC3)ccc12	46%		inhibition (J774.A1 [2]): inactive
O=C(Nc1ccccc1)c1ccc(N2CCN(c3ccc([N+](=O)[O-])cc3)CC2)c([N+](=O)[O-])c1	14.9%		inhibition (J774.A1 [2]): inactive
O=c1[nH]c(-c2ccccc2)nc2cc(CN3CCN(c4ccc([N+](=O)[O-])cc4)CC3)ccc12			inhibition (J774.A1 [1]): inactive; inhibition (J774.A1 [2]): inactive
COc1ccc(-c2cc(-c3ccc(CN4CCN(c5ccc([N+](=O)[O-])cc5)CC4)cc3)nc(=O)[nH]2)cc1	35%	38.7%	
O=C(NCc1ccccn1)c1ccc(N2CCN(Cc3cccc([N+](=O)[O-])c3)CC2)c([N+](=O)[O-])c1	33.1%	27%	
COCCN1CCN(Cc2ccc(-c3nc4ccccc4c(=O)[nH]3)cc2)CC1	34%	22.6%	
O=C(Nc1cccc2ccccc12)c1ccc(N2CCN(Cc3cccc([N+](=O)[O-])c3)CC2)c([N+](=O)[O-])c1	62.2%	39.8%	
O=C(Nc1ccccc1)c1ccc(N2CCN(Cc3ccc([N+](=O)[O-])cc3)CC2)c([N+](=O)[O-])c1			inhibition (J774.A1 [1]): inactive; inhibition (J774.A1 [2]): inactive
O=c1nc(-c2ccc(CN3CCN(CCO)CC3)cc2)cc(-c2ccccc2)[nH]1	18.2%	17.9%	
O=C(NCc1ccccn1)c1ccc(N2CCN(Cc3ccccc3)CC2)c([N+](=O)[O-])c1	36.4%	35.4%	
COc1ccc(NS(=O)(=O)c2ccc(N3CCN(c4ncccn4)CC3)c([N+](=O)[O-])c2)cn1	45%	22.3%	
O=c1[nH]c(-c2ccc(CN3CCN(CCO)CC3)cc2)nc2ccccc12	57.1%		inhibition (J774.A1 [2]): inactive
COCCN1CCN(c2ccc(C(=O)Nc3ccccc3)cc2[N+](=O)[O-])CC1	47.8%	26.9%	
